Measurements as given in patent US11987586B1 (TAKEDA PHARMACEUTICAL COMPANY LIMITED, priority 2022, dated 2024).

The compounds below were run against T1, human OX2 receptor (Homo sapiens, UniProt O43614) (assay: Measurement of orexin type 2 receptor agonist activity (calcium fluorescence, Fluo-4, FDSS)). Details: 3 uM test compound; CHO cells expressing human OX2 receptor; DMSO = 0%, 10 nM orexin A (human) = 100%.
T1 construct: expressed in transfected cells
T1 sequence (O43614 1-444): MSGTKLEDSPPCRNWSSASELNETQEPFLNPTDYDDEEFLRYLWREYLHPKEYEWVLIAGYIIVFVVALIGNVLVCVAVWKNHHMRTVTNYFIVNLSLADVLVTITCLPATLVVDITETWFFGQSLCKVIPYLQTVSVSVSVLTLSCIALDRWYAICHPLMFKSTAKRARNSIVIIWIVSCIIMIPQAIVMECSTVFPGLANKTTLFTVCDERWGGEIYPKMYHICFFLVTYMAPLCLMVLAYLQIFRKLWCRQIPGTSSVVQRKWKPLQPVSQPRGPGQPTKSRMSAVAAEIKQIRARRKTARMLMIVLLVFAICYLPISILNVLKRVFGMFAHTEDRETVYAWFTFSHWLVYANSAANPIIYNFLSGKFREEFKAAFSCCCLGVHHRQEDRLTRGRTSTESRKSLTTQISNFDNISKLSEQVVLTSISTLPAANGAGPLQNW
Type: cell-based
In short: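 Agonist activity (%) was normalised to the response to 10 nM final human orexin A (100%) and to the DMSO vehicle (0%). The response was measured as the Fluo-4 calcium signal, read kinetically over 1 min 40 s after compound addition to Fluo-4/probenecid-loaded stable CHO-K1 clones expressing human OX2 (aa 1-444).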

Going from `CCS(=O)(=O)N[C@@H]1Cn2c(cn(-c3noc4ccc(F)c(-c5c(F)cccc5F)c34)c2=O)C1(F)F` [Example 76, N-{(6R)-2-[4-(2,6-difluorophenyl)-5-fluoro-1,2-benzoxazol-3-yl]-7,7-difluoro-3-oxo-2,5,6,7-tetrahydro-3H-pyrrolo[1,2-c]imidazol-6-yl}ethanesulfonamide] to `O=C1N(c2noc3ccc(F)c(-c4c(F)cccc4F)c23)CC[C@H]2N1C[C@@H](NS(=O)(=O)CF)C2(F)F` [Example 270, N-{(4aR,6R)-2-[4-(2,6-difluorophenyl)-5-fluoro-1,2-benzoxazol-3-yl]-5,5-difluoro-1-oxooctahydropyrrolo[1,2-c]pyrimidin-6-yl}-1-fluoromethanesulfonamide], the “OX2R agonist activity (3 uM, %)” value rises from 105% to 109%.

Compared with `CS(=O)(=O)N[C@@H]1CN2C(=O)N(c3noc4cccc(-c5cccs5)c34)CC[C@@H]2C1(F)F` [Example 278, N-{(4aR,6R)-5,5-difluoro-1-oxo-2-[4-(thiophen-2-yl)-1,2-benzoxazol-3-yl]octahydropyrrolo[1,2-c]pyrimidin-6-yl}methanesulfonamide], `CS(=O)(=O)N[C@@H]1CN2C(=O)N(c3noc4cccc(-c5ccccc5)c34)CC[C@@H]2C1(F)F` [Example 223, N-[(4aR,6R)-5,5-difluoro-1-oxo-2-(4-phenyl-1,2-benzoxazol-3-yl)octahydropyrrolo[1,2-c]pyrimidin-6-yl]methanesulfonamide] is lower in “OX2R agonist activity (3 uM, %)” value: 109% for the first, 104% for the second.

`CS(=O)(=O)N[C@@H]1CN2C(=O)N(c3noc4cc(F)cc(-c5c(F)cccc5F)c34)CC[C@@H]2C1(F)F` [Example 314, N-{(4aR,6R)-2-[4-(2,6-difluorophenyl)-6-fluoro-1,2-benzoxazol-3-yl]-5,5-difluoro-1-oxooctahydropyrrolo[1,2-c]pyrimidin-6-yl}methanesulfonamide] and `CS(=O)(=O)N[C@@H]1CN2C(=O)N(c3noc4cc(F)cc(-c5ncc(F)cc5F)c34)CC[C@@H]2C1(F)F` [Example 295, N-{(4aR,6R)-2-[4-(3,5-difluoropyridin-2-yl)-6-fluoro-1,2-benzoxazol-3-yl]-5,5-difluoro-1-oxooctahydropyrrolo[1,2-c]pyrimidin-6-yl}methanesulfonamide] are the same in “OX2R agonist activity (3 uM, %)” value: 113% for the first, 113% for the second.

Going from `CS(=O)(=O)N[C@@H]1C[C@H]2CN(c3noc4cccc(-c5c(F)cccc5F)c34)C(=O)[C@H]2C1` (relative stereo) [Example 337, rel-N-{(3aR,5R,6aS)-2-[4-(2,6-difluorophenyl)-1,2-benzoxazol-3-yl]-1-oxooctahydrocyclopenta[c]pyrrol-5-yl}methanesulfonamide] to `CNS(=O)(=O)N[C@@H]1CN2C(=O)N(c3noc4cccc(-c5c(F)cccc5F)c34)C[C@@H]2C1(F)F` [Example 17, N-{(6R,7aR)-2-[4-(2,6-difluorophenyl)-1,2-benzoxazol-3-yl]-7,7-difluoro-3-oxohexahydro-1H-pyrrolo[1,2-c]imidazol-6-yl}-N′-methylsulfuric diamide], the “OX2R agonist activity (3 uM, %)” value rises from 79% to 104%.

First: O=C1N(c2noc3cc(F)c(F)c(-c4c(F)cc(F)cc4F)c23)CC[C@H]2N1C[C@@H](NS(=O)(=O)CF)C2(F)F [Example 297, N-{(4aR,6R)-2-[5,6-difluoro-4-(2,4,6-trifluorophenyl)-1,2-benzoxazol-3-yl]-5,5-difluoro-1-oxooctahydropyrrolo[1,2-c]pyrimidin-6-yl}-1-fluoromethanesulfonamide]
Second: O=C1N(c2noc3cc(F)cc(-c4c(F)cc(F)cc4F)c23)CC[C@H]2N1C[C@@H](NS(=O)(=O)CF)C2(F)F [Example 236, N-{(4aR,6R)-5,5-difluoro-2-[6-fluoro-4-(2,4,6-trifluorophenyl)-1,2-benzoxazol-3-yl]-1-oxooctahydropyrrolo[1,2-c]pyrimidin-6-yl}-1-fluoromethanesulfonamide]
The “OX2R agonist activity (3 uM, %)” value of the first is lower: 107% for the first, 108% for the second.

First: COCc1cc(-c2c(F)cc(F)cc2F)c2c(-n3cc4n(c3=O)C[C@@H](NS(C)(=O)=O)C4(F)F)noc2c1 [Example 111, N-{(6R)-7,7-difluoro-2-[6-(methoxymethyl)-4-(2,4,6-trifluorophenyl)-1,2-benzoxazol-3-yl]-3-oxo-2,5,6,7-tetrahydro-3H-pyrrolo[1,2-c]imidazol-6-yl}methanesulfonamide]
Second: CS(=O)(=O)N[C@@H]1Cn2c(cn(-c3noc4cc(F)cc(-c5c(F)cc(F)cc5F)c34)c2=O)C1(F)F [Example 108, N-{(6R)-7,7-difluoro-2-[6-fluoro-4-(2,4,6-trifluorophenyl)-1,2-benzoxazol-3-yl]-3-oxo-2,5,6,7-tetrahydro-3H-pyrrolo[1,2-c]imidazol-6-yl}methanesulfonamide]
The “OX2R agonist activity (3 uM, %)” value of the first is lower: 90% for the first, 109% for the second.

Going from `CCS(=O)(=O)N[C@@H]1CN2C(=O)N(c3noc4cc(F)cc(-c5ncc(F)cc5F)c34)CC[C@@H]2C1(F)F` [Example 254, N-{(4aR,6R)-2-[4-(3,5-difluoropyridin-2-yl)-6-fluoro-1,2-benzoxazol-3-yl]-5,5-difluoro-1-oxooctahydropyrrolo[1,2-c]pyrimidin-6-yl}ethanesulfonamide] to `CCS(=O)(=O)N[C@@H]1CN2C(=O)N(c3noc4cc(F)cc(-c5c(F)cc(F)cc5F)c34)CC[C@@H]2C1(F)F` [Example 261], the “OX2R agonist activity (3 uM, %)” value rises from 95% to 105%.

Compared with `O=C1N(c2noc3cc(F)cc(-c4c(F)cc(F)cc4F)c23)C[C@H]2N1C[C@@H](NS(=O)(=O)CF)C2(F)F` [Example 266], `CCOc1cc(-c2c(F)cc(F)cc2F)c2c(N3CC[C@H]4N(C[C@@H](NS(C)(=O)=O)C4(F)F)C3=O)noc2c1` [Example 217, N-{(4aR,6R)-2-[6-ethoxy-4-(2,4,6-trifluorophenyl)-1,2-benzoxazol-3-yl]-5,5-difluoro-1-oxooctahydropyrrolo[1,2-c]pyrimidin-6-yl}methanesulfonamide] is higher in “OX2R agonist activity (3 uM, %)” value: 103% for the first, 104% for the second.

Going from `CCS(=O)(=O)N[C@@H]1CN2C(=O)N(c3noc4cc(F)c(F)c(-c5c(F)cccc5F)c34)CC[C@@H]2C1(F)F` [Example 311, N-{(4aR,6R)-2-[4-(2,6-difluorophenyl)-5,6-difluoro-1,2-benzoxazol-3-yl]-5,5-difluoro-1-oxooctahydropyrrolo[1,2-c]pyrimidin-6-yl}ethanesulfonamide] to `CCS(=O)(=O)N[C@@H]1Cn2c(cn(-c3noc4cc(C(F)F)cc(-c5c(F)cc(F)cc5F)c34)c2=O)C1(F)F` [Example 165, N-{(6R)-2-[6-(difluoromethyl)-4-(2,4,6-trifluorophenyl)-1,2-benzoxazol-3-yl]-7,7-difluoro-3-oxo-2,5,6,7-tetrahydro-3H-pyrrolo[1,2-c]imidazol-6-yl}ethanesulfonamide], the “OX2R agonist activity (3 uM, %)” value falls from 99% to 97%.

`COCc1cc2onc(-n3cc4n(c3=O)C[C@@H](NS(C)(=O)=O)C4(F)F)c2c(-c2c(F)cc(F)cc2F)c1F` [Example 244, N-{(6R)-7,7-difluoro-2-[5-fluoro-6-(methoxymethyl)-4-(2,4,6-trifluorophenyl)-1,2-benzoxazol-3-yl]-3-oxo-2,5,6,7-tetrahydro-3H-pyrrolo[1,2-c]imidazol-6-yl}methanesulfonamide] was tested, and the “OX2R agonist activity (3 uM, %)” value was 89%.
